In paper PMC10610289, “Novel Baicalein-Derived Inhibitors of Plasmodium falciparum” (Pathogens, 2023):

Key:
[1] = system: Plasmodium yoelii N67 (Chloroquine-resistant); assay: In vivo antimalarial assay in Swiss mice; details: 100 mg/kg ×4 days, oral
Experimental: All animal experiments were performed following the institutional animal ethics committee (IAEC). Laboratory-bred Swiss albino mice (both male and female) weighing 20–22 g were obtained from breeding colonies at the National Laboratory Animal Centre at the CSIR-CDRI, Lucknow, with due permission from the animal ethics committee (IAEC/2018/16/Renew-1/Dated-05/04/2019). The rodent malaria parasite Plasmodium yoelii N67 (chloroquine-resistant) was used for the study. This parasite was maintained by serial passage in healthy Swiss mice of either sex.
Swiss mice were inoculated with a standard inoculum of 1 × 106 P. yoelii N67 parasitized erythrocytes intraperitoneally. The 22-gauge hypodermic needle was used to infect the mice and was injected with a 0.5 mL (infected RBCs) volume. Treatment was initiated from day 0 to day 3 (total 4 days) once daily, and different routes of administration, viz., oral, intravenous, intraperitoneally, and subcutaneous, were used. For in vivo evaluation, compounds were dissolved in 300 µL of DMSO and were made up with MilliQ. The efficacy of in vitro active compounds was evaluated for in vivo activity at different doses, and the desired daily dose was administered in a 0.2 mL volume. A drop of blood from the mice’s tails was collected regularly throughout the experiment for parasitemia estimation. The group’s mean value was calculated using the percentage suppression of parasitemia compared with the untreated control group.

[2] = system: Vero cells; assay: Cytotoxicity assay against Vero cell line; assay type: cell-based; details: 72 h, resazurin (CC50)
Experimental: Vero cells were initially washed with PBS and trypsinized, and a 1 × 10^5 cells/mL suspension was prepared. A total of 100 µL of a cell suspension was distributed to each well of the 96-well microtiter plates and allowed to adhere overnight. The next day, serial dilutions of selected test compounds were made in the plates and incubated for 72 h. After 72 h, a ten-microliter resazurin solution (12.5 mg/100 mL PBS) was added to each well. After 3 h, plates were read using a fluorescence reader (Biotek) at an excitation wavelength of 530 nm and an emission wavelength of 590 nm (Sperandeo and Brun, 2003). The MS-EXEL template determined the cytotoxic concentration (CC50) for selected compounds.

[3] = system: THP-1; assay: Cytotoxicity in THP-1; assay type: cell-based
From the text: Table 5 The compound FNDR-10132 progression profile. | column: FNDR-10132

[4] = system: resistant strains of P. falciparum; assay: Cross-resistance panel, all mutants/strains tested; assay type: cell-based; details: Plasmodium falciparum, read-out: antimalarial activity range against all mutants/strains tested
Experimental: (§1) Parasite lines used in the study were P. falciparum 3D7 (Pf3D7 Chloroquine-sensitive) and Plasmodium falciparum K1 (PfK1 Chloroquine-resistant) sourced from the Malaria Research and Reference Reagent Resource Center (MR4), ATCC, Manassas, VA, USA. FNDR-10132 was tested against a cross-resistance panel at Swiss TPH, Allschwil, Switzerland.

[5] = Microsomal stability assay; assay type: in vitro ADME, mouse; details: 37 °C
Experimental: Dipotassium hydrogen phosphate, Potassium dihydrogen phosphate, and formic acid were obtained from Merck, Rahway, NJ, USA. Methanol–acetonitrile was procured from Biosolve Chimie, Dieuze, France. Mouse liver microsomes, 20 mg/mL, were received from a third-party vendor in India. Imipramine HCl (catalog no. I0971) and Carbamazepine (catalog no. O0363) were procured from TCI, Gurugram, India. ß-NADPH (product code-99197) was procured from Sisco Research Laboratories, Mumbai, India.
The in vitro metabolic stability was determined in mouse liver microsomes. To prepare a mouse liver microsomes (MLM) homogenate, 100 µL of microsomes was resuspended in 100 mM phosphate buffer (0.607 g K2HPO4 and 0.212 g KH2PO4 dissolved in 50 mL of de-ionized water), achieving a working concentration of 0.625 mg/mL. Positive control (Imipramine) and test compounds (FNDR-10132, 10136, 10139, and 10999) were spiked individually into the MLM homogenate at a final concentration of 1 µm. To pre-incubate, they were placed in a water bath at 37 °C for 5 min. At least 30 µL was collected in triplicates (0 min samples), and the reaction was quenched using 90 µL of acetonitrile, which contained 500 ng/mL of Carbamazepine as an internal standard. Nicotinamide Adenine Dinucleotide Phosphate (NADPH) in phosphate buffer was added to the remaining MLM at a 1 mM final concentration and further incubated at 37 °C. At the indicated time intervals, 30 µL aliquots were sampled in triplicates, and the reaction was quenched with acetonitrile containing Carbamazepine as the internal standard. The samples were centrifugated for 10 min at 13,000 rpm, and the supernatant was separated for further analysis.
The analytical method for microsomal stability and protein binding assay is as follows: Chromatographic elution was achieved following isocratic flow on an X-Terra MS C18 50 × 4.6 mm, 2.5 µm, Waters, USA, maintained at 40 °C. The mobile phase contained aqueous 0.1% formic acid in water in solvent A and acetonitrile acidified with 0.1% formic acid in solvent B delivered at 0.300 mL/min. The flow was 15% from solvent A and 85% from solvent B for 4.5 min. A total of 7 μL of the sample was injected for the assay. […] Detection was performed through multiple reaction monitoring (MRM). The ion transitions are as follows: Imipramine, FNDR-10132, FNDR-10136, FNDR-10139, FNDR-10999, and IS at m/z 281.1→86.0, 355.2→115.1, 354.0→298.0, 350.0→186.1, 349→305.2, and m/z 237.0→194.0, respectively. An optimized cone voltage and collision energy were used to ionize the compounds. The MS parameters follow as follows: cone gas flow 50 (L/h); ion source temperature 150 °C; desolvation gas flow 900 (L/h); desolvation temperature 400 °C; and collision gas flow 0.10 (mL/min).

[6] = system: Dd2 390048 (Pfpi4k S743T); assay: Cross-resistance panel, Dd2 390048; assay type: cell-based, Plasmodium falciparum
Experimental: as §1

[7] = system: Dd2 (wt); assay: Cross-resistance panel, Dd2 wt; assay type: cell-based, Plasmodium falciparum; details: strain Dd2 wt
Experimental: as §1

[8] = system: P. falciparum male gametocytes; assay: P. falciparum dual gamete formation assay (PfDGFA), male; assay type: cell-based; details: Plasmodium falciparum, read-out: DGF Assay—Inhibition, male
Experimental: The FNDR-10132 was evaluated in a male and female gametocyte functional viability assay by following the procedure described in Ruecker et al..

## CCCCCCc1ccc(-c2cc(=O)c3c(O)c(O)c(O)cc3o2)cc1 [FNDR-10132]
[1]
  % Parasitemia ± S.D on Day 4: 8.5 ± 1.39 (4) %
  % Parasitemia ± S.D on Day 7: 26.15 ± 8.70 (4) %
  % Parasitemia ± S.D on Day 10: 24.07 ± 3.69 (3) %
  % Parasitemia ± S.D on Day 14: 46.5 ± 4.2 (2) %
  % Parasitemia ± S.D on Day 21: Dead
  Mean Survival Time (MST) Days ± SD: 13.5 ± 2.3 days
[1]; Swiss mice
  Day 4 % Suppression: 44%
[2]
  Cytotoxicity Vero Cell: 174 µM
[3]
  Cytotoxicity THP-1: 90 µM
[4]
  IC50: 200 to 300 nM
[5]; 60 min, ß-NADPH
  stability in mouse liver microsomes (in words): moderate stability
[5]; at 30 min, 1 µM, NADPH
  Microsomal Stability (Mouse): 99%
[6]; Plasmodium falciparum, DD2
  IC50: 290 nM
[6]; strain Dd2 390048
  Fold shift IC50 rel. Dd2: 0.9
[7]; Plasmodium falciparum
  IC50: 328 nM
[7]
  Fold shift IC50 rel. Dd2: 1.0
[8]
  inhibition at 1 µM: 1.6%
